In brackets after ≈: the same amount, converted by molar mass. Like-named read-outs stand apart in the source and are kept apart here.
Key:
[1] = tested on: Lactobacillus acidophilus (CCUG 4356)
[2] = simulated gi fluid
[3] = tested on: Clostridium scindens (ATCC 35704)
[4] = tested on: Peptostreptococcus anaerobius (ATCC 27337)
[5] = tested on: Eggerthella lenta (ATCC 27337)
[6] = tested on: VRE Enterococcus faecalis; settings: VRE
[7] = FaSSIF + 1% pancreatin + 3 μg/ml trypsin + 3 μg/ml chymotrypsin half-life

With `C=C1NC(=O)[C@H](Cc2c[nH]c3ccccc23)NC(=O)[C@H](NC(=O)[C@H](CCCCN)NC(=O)[C@H](C)N)CSC[C@@H](C(=O)N[C@H]2C(=O)N3CCC[C@H]3C(=O)NCC(=O)N[C@H](C(=O)N[C@@H](C)C(=O)N[C@@H](C)C(=O)NC(=CC)C(=O)NCC(=O)N[C@@H]3CSC[C@@H]4NC(=O)[C@H](Cc5ccc(O)cc5)NC(=O)[C@@H](CS/C=C\NC4=O)NC(=O)[C@H](CC(N)=O)NC(=O)[C@H](Cc4ccccc4)NC3=O)CS[C@H]2C)NC(=O)[C@H](CC(C)C)NC1=O` [F1A R13A] the “MIC to H. Pylori without EDTA” value (Heliobacter pylori) was over 64 µg/mL, the “MIC to H. Pylori with 0.05M EDTA” value (Heliobacter pylori) was 64 µg/mL and the “MIC L. acidophilus” value [1] was 8 µg/mL (≈ 3.8 µM). For the same compound, the half-life [2, 7] was 2.17 h, the half-life ([2]; FaSSIF only half-life) was over 12 h and the “MIC VRE ATCC 700221” value (VRE Enterococcus faecium) was 16 µg/mL (≈ 7.61 µM). For the same compound, the “MIC C. scindens” value [3] was 16 µg/mL (≈ 7.61 µM), the “MIC P. anaerobius” value [4] was 2 µg/mL (≈ 0.951 µM) and the “MIC E. lenta” value [5] was 4 µg/mL (≈ 1.9 µM). For the same compound, the “MIC VRE ATCC 51575” value [6] was 32 µg/mL (≈ 15.2 µM) and the “MIC VRE CCUG 47775” value [6] was 32 µg/mL (≈ 15.2 µM).
With `C=C1NC(=O)[C@H](Cc2c[nH]c3ccccc23)NC(=O)[C@H](NC(=O)[C@H](CCCCN)NC(=O)[C@H](C)N)CSC[C@@H](C(=O)N[C@H]2C(=O)N3CCC[C@H]3C(=O)NCC(=O)N[C@H](C(=O)N[C@@H](C)C(=O)NCC(=O)NC(=CC)C(=O)NCC(=O)N[C@@H]3CSC[C@@H]4NC(=O)[C@H](Cc5ccc(O)cc5)NC(=O)[C@@H](CS/C=C\NC4=O)NC(=O)[C@H](CC(N)=O)NC(=O)[C@H](Cc4ccccc4)NC3=O)CS[C@H]2C)NC(=O)[C@H](CC(C)C)NC1=O` [F1A R13G] the “MIC to H. Pylori without EDTA” value (Heliobacter pylori) was over 64 µg/mL, the “MIC to H. Pylori with 0.05M EDTA” value (Heliobacter pylori) was over 64 µg/mL and the “MIC L. acidophilus” value [1] was 16 µg/mL (≈ 7.66 µM). The half-life [2, 7] was 2.07 h, the half-life ([2]; FaSSIF only half-life) was 4.98 h and the “MIC VRE ATCC 700221” value (VRE Enterococcus faecium) was 32 µg/mL (≈ 15.3 µM). For the same compound, the “MIC C. scindens” value [3] was 32 µg/mL (≈ 15.3 µM), the “MIC P. anaerobius” value [4] was 4 µg/mL (≈ 1.91 µM) and the “MIC E. lenta” value [5] was 16 µg/mL (≈ 7.66 µM). For the same compound, the “MIC VRE ATCC 51575” value [6] was over 64 µg/mL and the “MIC VRE CCUG 47775” value [6] was over 64 µg/mL.
With `C=C1NC(=O)[C@H](Cc2c[nH]c3ccccc23)NC(=O)[C@H](NC(=O)[C@H](CCCCN)NC(=O)CN)CSC[C@@H](C(=O)N[C@H]2C(=O)N3CCC[C@H]3C(=O)NCC(=O)N[C@H](C(=O)N[C@@H](C)C(=O)N[C@@H](CC(N)=O)C(=O)NC(=CC)C(=O)NCC(=O)N[C@@H]3CSC[C@@H]4NC(=O)[C@H](Cc5ccc(O)cc5)NC(=O)[C@@H](CS/C=C\NC4=O)NC(=O)[C@H](CC(N)=O)NC(=O)[C@H](Cc4ccccc4)NC3=O)CS[C@H]2C)NC(=O)[C@H](CC(C)C)NC1=O` [F1G R13N] the “MIC to H. Pylori without EDTA” value (Heliobacter pylori) was over 64 µg/mL, the “MIC to H. Pylori with 0.05M EDTA” value (Heliobacter pylori) was over 64 µg/mL and the “MIC L. acidophilus” value [1] was 8 µg/mL (≈ 3.75 µM). The half-life [2, 7] was 3.75 h, the half-life ([2]; FaSSIF only half-life) was over 12 h and the “MIC VRE ATCC 700221” value (VRE Enterococcus faecium) was 32 µg/mL (≈ 15 µM). The “MIC C. scindens” value [3] was 16 µg/mL (≈ 7.5 µM), the “MIC P. anaerobius” value [4] was 4 µg/mL (≈ 1.88 µM) and the “MIC E. lenta” value [5] was 16 µg/mL (≈ 7.5 µM). The “MIC VRE ATCC 51575” value [6] was over 64 µg/mL and the “MIC VRE CCUG 47775” value [6] was over 64 µg/mL.
For `C=C1NC(=O)[C@H](Cc2c[nH]c3ccccc23)NC(=O)[C@H](NC(=O)[C@H](CCCCN)NC(=O)[C@@H](N)[C@@H](C)CC)CSC[C@@H](C(=O)N[C@H]2C(=O)N3CCC[C@H]3C(=O)NCC(=O)N[C@H](C(=O)N[C@@H](C)C(=O)N[C@@H](CC(N)=O)C(=O)NC(=CC)C(=O)N[C@@H](C)C(=O)N[C@@H]3CSC[C@@H]4NC(=O)[C@H](Cc5ccc(O)cc5)NC(=O)[C@@H](CS/C=C\NC4=O)NC(=O)[C@H](CC(N)=O)NC(=O)[C@H](Cc4ccccc4)NC3=O)CS[C@H]2C)NC(=O)[C@H](CC(C)C)NC1=O` [F1I R13N G15A], the “MIC to H. Pylori without EDTA” value (Heliobacter pylori) was over 64 µg/mL, the “MIC to H. Pylori with 0.05M EDTA” value (Heliobacter pylori) was 64 µg/mL and the “MIC L. acidophilus” value [1] was 8 µg/mL (≈ 3.63 µM). The half-life [2, 7] was over 12 h, the half-life ([2]; FaSSIF only half-life) was over 12 h and the “MIC VRE ATCC 700221” value (VRE Enterococcus faecium) was 32 µg/mL (≈ 14.5 µM). For the same compound, the “MIC C. scindens” value [3] was 16 µg/mL (≈ 7.26 µM), the “MIC P. anaerobius” value [4] was 4 µg/mL (≈ 1.82 µM) and the “MIC E. lenta” value [5] was 8 µg/mL (≈ 3.63 µM). For the same compound, the “MIC VRE ATCC 51575” value [6] was 32 µg/mL (≈ 14.5 µM) and the “MIC VRE CCUG 47775” value [6] was over 64 µg/mL.
In the case of `C=C1NC(=O)[C@H](CCSC)NC(=O)[C@H](NC(=O)[C@H](CCCCN)NC(=O)[C@@H](N)[C@@H](C)CC)CSC[C@@H](C(=O)N[C@H]2C(=O)N3CCC[C@H]3C(=O)NCC(=O)N[C@H](C(=O)N[C@@H](C)C(=O)N[C@@H](C)C(=O)NC(=CC)C(=O)NCC(=O)N[C@@H]3CSC[C@@H]4NC(=O)[C@H](Cc5ccc(O)cc5)NC(=O)[C@@H](CS/C=C\NC4=O)NC(=O)[C@H](CC(N)=O)NC(=O)[C@H](Cc4ccccc4)NC3=O)CS[C@H]2C)NC(=O)[C@H](CC(C)C)NC1=O` [F1I W4M R13A], the “MIC to H. Pylori without EDTA” value (Heliobacter pylori) is reported as 64 µg/mL (≈ 30.6 µM), the “MIC to H. Pylori with 0.05M EDTA” value (Heliobacter pylori) is reported as 64 µg/mL and the “MIC L. acidophilus” value [1] is reported as 32 µg/mL (≈ 15.3 µM). For the same compound, the half-life [2, 7] was 5.82 h, the half-life ([2]; FaSSIF only half-life) was over 12 h and the “MIC VRE ATCC 700221” value (VRE Enterococcus faecium) was over 64 µg/mL. For the same compound, the “MIC C. scindens” value [3] was 32 µg/mL (≈ 15.3 µM), the “MIC P. anaerobius” value [4] was 8 µg/mL (≈ 3.83 µM) and the “MIC E. lenta” value [5] was 16 µg/mL (≈ 7.65 µM). The “MIC VRE ATCC 51575” value [6] was over 64 µg/mL and the “MIC VRE CCUG 47775” value [6] was over 64 µg/mL.
In the case of `C=C1NC(=O)[C@H](Cc2c[nH]c3ccccc23)NC(=O)[C@H](NC(=O)[C@H](CCCCN)NC(=O)[C@@H](N)CO)CSC[C@@H](C(=O)N[C@H]2C(=O)N3CCC[C@H]3C(=O)NCC(=O)N[C@H](C(=O)N[C@@H](C)C(=O)N[C@@H](CC(N)=O)C(=O)NC(=CC)C(=O)NCC(=O)N[C@@H]3CSC[C@@H]4NC(=O)[C@H](Cc5ccc(O)cc5)NC(=O)[C@@H](CS/C=C\NC4=O)NC(=O)[C@H](CC(N)=O)NC(=O)[C@H](Cc4ccccc4)NC3=O)CS[C@H]2C)NC(=O)[C@H](CC(C)C)NC1=O` [F1S R13N], the “MIC to H. Pylori without EDTA” value (Heliobacter pylori) is reported as over 64 µg/mL, the “MIC to H. Pylori with 0.05M EDTA” value (Heliobacter pylori) is reported as over 64 µg/mL and the “MIC L. acidophilus” value [1] is reported as 16 µg/mL (≈ 7.4 µM). The half-life [2, 7] was over 12 h, the half-life ([2]; FaSSIF only half-life) was over 12 h and the “MIC VRE ATCC 700221” value (VRE Enterococcus faecium) was 64 µg/mL (≈ 29.6 µM). The “MIC C. scindens” value [3] was 32 µg/mL (≈ 14.8 µM), the “MIC P. anaerobius” value [4] was 8 µg/mL (≈ 3.7 µM) and the “MIC E. lenta” value [5] was 16 µg/mL (≈ 7.4 µM). For the same compound, the “MIC VRE ATCC 51575” value [6] was over 64 µg/mL and the “MIC VRE CCUG 47775” value [6] was over 64 µg/mL.
With `C=C1NC(=O)[C@H](Cc2c[nH]c3ccccc23)NC(=O)[C@H](NC(=O)[C@H](CCCCN)NC(=O)[C@@H](N)[C@@H](C)O)CSC[C@@H](C(=O)N[C@H]2C(=O)N3CCC[C@H]3C(=O)NCC(=O)N[C@H](C(=O)N[C@@H](C)C(=O)NCC(=O)NC(=CC)C(=O)NCC(=O)N[C@@H]3CSC[C@@H]4NC(=O)[C@H](Cc5ccc(O)cc5)NC(=O)[C@@H](CS/C=C\NC4=O)NC(=O)[C@H](CC(N)=O)NC(=O)[C@H](Cc4ccccc4)NC3=O)CS[C@H]2C)NC(=O)[C@H](CC(C)C)NC1=O` [F1T R13G] the “MIC to H. Pylori without EDTA” value (Heliobacter pylori) was over 64 µg/mL, the “MIC to H. Pylori with 0.05M EDTA” value (Heliobacter pylori) was over 64 µg/mL and the “MIC L. acidophilus” value [1] was 8 µg/mL (≈ 3.77 µM). For the same compound, the half-life [2, 7] was 1.9 h, the half-life ([2]; FaSSIF only half-life) was over 12 h and the “MIC VRE ATCC 700221” value (VRE Enterococcus faecium) was 32 µg/mL (≈ 15.1 µM). The “MIC C. scindens” value [3] was 64 µg/mL (≈ 30.2 µM), the “MIC P. anaerobius” value [4] was 8 µg/mL (≈ 3.77 µM) and the “MIC E. lenta” value [5] was 8 µg/mL (≈ 3.77 µM). The “MIC VRE ATCC 51575” value [6] was 64 µg/mL (≈ 30.2 µM) and the “MIC VRE CCUG 47775” value [6] was 64 µg/mL (≈ 30.2 µM).
In the case of `CN(C)[C@@H]1C(O)=C(C(N)=O)C(=O)[C@@]2(O)C(O)=C3C(=O)c4c(O)cccc4[C@@](C)(O)[C@H]3C[C@@H]12` [Tetracycline, reference compound], the “MIC to H. Pylori with 0.05M EDTA” value (Heliobacter pylori) is reported as 0.25 µg/mL and the “MIC to H. Pylori without EDTA” value (Heliobacter pylori; without EDTA) is reported as 0.5 µg/mL (≈ 1.13 µM).
